Data: a melting point compilation (Tetko et al.; mined from patent text by program, amines drawn as free bases though some values may be those of a salt)

Row | Compound | melting point [°C]
1 | C=C1C(=C)C2OC1c1cc3cccc(OC)c3cc12 (centres undefined) | 154 to 155
2 | CCCCCCCN=C1SC(=CC(=O)O)C(=O)N1CCCCCCC | 80 to 81
3 | CCc1c(C2=NC(C)(C)CO2)ccc(C2=NC(C)(C)CO2)c1CC | 49 to 50
4 | COc1ccc(C(=O)NS(=O)(=O)C=Cc2ccc(Cl)c(Cl)c2)cc1OC | 145 to 147
5 | CC(C(=O)O)c1cc(Cl)c([N+](=O)[O-])cc1Cl (centres undefined) | 143
6 | CCn1cc(C(=O)O)c(=O)c2cc(F)c(N3CCC(N(C)C)CC3)c(F)c21 | 210 to 211
7 | Cc1cc(=O)[nH]c2c1C(=O)CCC2 | 96 to 97
8 | CC(C)Oc1cc(Oc2ccc(C(F)(F)F)cn2)ccc1CCCOc1cc(CCC(=O)O)n(C)n1 | 128 to 130
9 | O=C(O)c1ccc(CCCBr)cc1 | 120
10 | CS(=O)(=O)NC(=O)CCCCOc1cccc2occc12 | 110 to 112
11 | COc1cccc2c(Cl)c(C(=O)C(C)C)cnc12 | 90 to 92
12 | O=C(CC(c1ccccc1)(c1ccccc1)c1ccccc1)N1CCC(O)(Cc2ccccc2)CC1 | 150 to 166
13 | CCCc1nc2c(N)nc3cc(OC4CCOC4)ccc3c2n1CC(C)C (centres undefined) | 178 to 182
14 | O=CC1CC1Nc1nccc(-n2nnc3ccccc32)n1 (centres undefined) | 99 to 100
15 | Brc1ccc2c3c(cccc13)C(NCCCCCn1ccnc1)=N2 | 138 to 140
16 | OC1(CCc2ccccc2)CCC2(CC1)OCCO2 | 109 to 110
17 | CCCC(=NOCC)C1=C(O)CC(c2c(C)c3c(c(C)c2Cl)CC(C)(C)C3)CC1=O (centres undefined) | 93 to 94
18 | O=C1CC2Cc3cc(N4CCCCC4)ccc3C2=NN1 (centres undefined) | 252 to 254
19 | CC1(C)CC(=O)C2C(=NC3=C(C(=O)CC(C)(C)C3)C2c2ccc(C#N)c([N+](=O)[O-])c2)C1 (centres undefined) | 274 to 275
20 | CN(c1nc(Nc2ccc(O)cc2)nc(NC2CCCCCC2)n1)C1CCNCC1 | 130
21 | COc1cc(CC(=O)CCNCCOc2ccc(C(=O)O)cc2OC)ccc1NC(=O)Nc1ccccc1C | 115 to 118
22 | O=C(NCCCOCCCNC(=O)c1ccc(OC(F)(F)F)cc1)c1ccc(OC(F)(F)F)cc1 | 118 to 120
23 | CCOc1ccc(-c2cc(C(F)(F)F)n3cnc(-c4ccncc4)c3n2)cc1C(F)(F)F | 244
24 | CCCCCCN(C)c1ccc(C=C2SC(=S)N(Cc3nnn[nH]3)C2=O)cc1 | 198 to 200
25 | CCc1nc2c(-c3ccc(Cl)cc3Cl)nnc(C)c2n1C(CC)CC | 63 to 64
26 | CC=C1CCC2C3CCC4CC(O)C(OCC)CC4(C)C3C(=O)CC12C (centres undefined) | 172 to 178

Further lines, results first:

Row | melting point [°C] | Compound
27 | 146 to 148 | O=C(c1ccccc1)c1nc(Br)ccc1[N+](=O)[O-]
28 | 163 to 166 | CC(=O)c1cc(Cl)c(O)c2ncccc12
29 | 208 to 209 | Cc1ccc(Nc2nc(=O)c3cccnc3s2)cc1
30 | 158 to 159 | COc1cc2c(cc1OCc1ccccc1)CCN(C(=O)c1ccc(C#N)cc1)C2=O
31 | 168 to 170 | Cc1noc(C)c1-c1cn(Cc2ccccc2)c(=O)c2ncccc12
32 | 211 to 213 | O=C(c1cccs1)c1cnn2c(-c3cccc(-n4cccc4)c3)ccnc12
33 | 168 to 169 | O=c1[nH]c2ccc(-c3cccc(Cl)c3)cc2n1Cc1ccccc1
34 | 145 to 147 | O=C(O)c1ccc(CCC(=O)c2ccccc2)cc1
35 | 73 to 74 | CC(C)(C)OC(=O)NCc1ccc(CN2CCC(c3ccccc3)CC2)cc1
36 | 117 to 119 | COc1ccc(C(=O)Cc2ccccc2)cc1OC1CCCC1
37 | 245 | CC1SC(=O)NN=C1c1ccc2c(c1)C(C)(C)C(=O)N2C(=O)c1cccnc1 (centres undefined)
38 | 227 to 230 | NC1=NS(=O)N=C1NCCCN1c2ccccc2CCc2ccccc21 (centres undefined)
39 | 201 to 205 | Cc1cccc(-c2[nH]c(C(C)C)nc2-c2ccc(F)c(-c3ncc[nH]3)c2)n1
